Results: US10370405B2, “C-3 novel triterpenone with C-28 amide derivatives as HIV inhibitors” (HETERO LABS LIMITED, priority 2016, dated 2019)
Like-named read-outs stand apart in the source and are kept apart here.

How the values were obtained:
HIV-1 strain 92HT599 = assay: Antiviral activity: p24 estimation in MT2 cells infected with HIV-1; assay type: cell-based; conditions: for IC50: Human immunodeficiency virus 1, MT2; for inhibition at 0.01 µM / inhibition at 0.1 µM / inhibition at 1 µM: Human immunodeficiency virus 1, MT2 cells, HIV-1 92HT599, p24, ~96 hours
Experimental: MT2 cells were infected with HIV-1 strain 92HT599 (10 TCID 50/30000 cells). The infected cells were plated at the concentration of ˜30 000 cells per well in 96 well plate. Test compound was added to the micro plate in defined format with the final concentration of DMSO (vehicle) is not more than 1%. Incubation was carried out in CO2 incubator for ˜96 hours for viral infection. At the end of incubation period an aliquot from each well was taken for p24 estimation. The quantitation of p24 is an index for antiviral activity of the compound. Percent inhibition was calculated with reference to control values (vehicle controls). P-24 estimation was carried out using Advance biosciences kit as per the procedure detailed by supplier.

[1] = Single dose oral pharmacokinetic study; assay type: in vivo; conditions: mouse, plasma; Mice oral PK @30 mg/kg
Experimental: The test item was administered through oral route to animals (rat/mice) at 30 mg/kg dose in a suitable vehicle (10% Solutol+20% PEG) at 10 ml/kg dose volume. Blood samples (˜50 μL at each time point) were collected from retro-orbital plexus using K3 EDTA as anticoagulant in eppendorf tubes at defined time intervals 30 minutes, 1 hour, 2 hour, 4 hour, 8 hour, 24 hour & 48 hour under light ether anaesthesia. The samples were centrifuged at 3500×g to separate plasma and stored at −80° C. until analysis. Plasma […] for Mice were processed as per described in sample preparation.
Standard solutions of the test compound 1 mg/mL solutions were prepared in DMSO and further dilutions were made in methanol. The calibration curve samples for LCMSMS analysis were prepared by spiking 25 μl of Mice plasma with 2.5 μl and of the appropriate working standard solution to obtain final concentrations 0.078, 0.156, 0.312, 0.625, 1.25, 2.5, 5, 10, 20 & 40 µg/ml. To the test compound plasma extraction was carried out using Acetonitrile precipitation. After reconstitution with solvent (50% Acetonitrile in Buffer) samples were analyzed by LCMSMS to get the concentrations to calculate PK Parameters.

[2] = 0% serum, read-out: Antiviral activity IC50 (nM) 0%
[3] = read-out: Antiviral activity IC50 (nM) 40% serum

Experimental for in vitro: On day 1 calculate the number of cells required for the assay and seed 3×10^4 cells in 200 μl per well. Weigh the compound and dissolve it in DMSO to get 10 mM stock which is further diluted to 3 mM and 1 mM. The drugs from these stocks were added to plate to get final concentration of 100 μM, 30 μM and 10 μM. […] Incubate for 4 days in 5% CO2 incubator at 37° C. On day 4, 100 μl of medium was removed from each well without disturbing the cells. Add 10 μl of MTT reagent and incubate for 4 hours at 5% CO2 incubator at 37° C. for formation of crystals. Add 200 μl of 0.1N acidic isopropanol to dissolve the crystals and read the plate at 590 nm.

SMILES	viability at 4 days, 10 μM (in vitro) [%]	viability at 4 days, 30 μM (in vitro) [%]	viability at 4 days, 100 μM (in vitro) [%]	IC50 (HIV-1 strain 92HT599; [2]) [nM]	IC50 (HIV-1 strain 92HT599; [3]) [nM]	inhibition at 0.01 µM (HIV-1 strain 92HT599) [%]	inhibition at 0.1 µM (HIV-1 strain 92HT599) [%]	inhibition at 1 µM (HIV-1 strain 92HT599) [%]	AUC(0-t) [1] [µg·h/mL]	Cmax [1] [ng/mL]
CC(C)C1=C2[C@H]3CC[C@@H]4[C@@]5(C)CC[C@H](OC(=O)[C@H]6C[C@@H](C(=O)O)C6(C)C)C(C)(C)[C@@H]5CC[C@@]4(C)[C@]3(C)CC[C@@]2(C(=O)N2CCC[C@H]2CN2CCC[C@H]2CO)CC1=O [Example 5, (1R,3S)-3-((((3aR,5aR,5bR,7aR,9S,11aR,11bR,13aS)-3a-((S)-2-(((S)-2-(hydroxymethyl)pyrrolidin-1-yl)methyl)pyrrolidine-1-carbonyl)-1-isopropyl-5a,5b,8,8,11a-pentamethyl-2-oxo-3,3a,4,5,5a,5b,6,7,7a,8,9,10,11,11a,11b,12,13,13a-octadecahydro-2H-cyclopenta[a]chrysen-9-yl)oxy)carbonyl)-2,2-dimethlcyclobutane-1-carboxylic acid]	70	70	73	0.93	25.5	100	100	100	–	–
CC(C)C1=C2[C@H]3CC[C@@H]4[C@@]5(C)CC[C@H](OC(=O)[C@H]6C[C@@H](C(=O)O)C6(C)C)C(C)(C)[C@@H]5CC[C@@]4(C)[C@]3(C)CC[C@@]2(C(=O)N2CC[C@@H](N3CCCC3)C2)CC1=O [Example 4, (1R,3S)-3-((((3aR,5aR,5bR,7aR,9S,11aR,11bR,13aS)-3a-((R)-[1,3′-bipyrrolidine]-1′-carbonyl)-1-isopropyl-5a,5b,8,8,11a-pentamethyl-2-oxo-3,3a,4,5,5a,5b,6,7,7a,8,9,10,11,11a,11b,12,13,13a-octadecahydro-2H-cyclopenta[a]chrysen-9-yl)oxy)carbonyl)-2,2-dimethylcyclobutane-1-carboxylic acid]	62	6	2	0.68	54.5	100	100	100	–	–
CC(C)C1=C2[C@H]3CC[C@@H]4[C@@]5(C)CC[C@H](OC(=O)[C@H]6C[C@@H](C(=O)O)C6(C)C)C(C)(C)[C@@H]5CC[C@@]4(C)[C@]3(C)CC[C@@]2(C(=O)N2CCC[C@H]2CN2CCCC2)CC1=O [Example 13, (1R,3S)-3-((((3aR,5aR,5bR,7aR,9S,11aR,1 bR,13aS)-1-isopropyl-5a,5b,8,8,11a-pentamethyl-2-oxo-3a-((S)-2-(pyrrolidin-1-ylmethyl)pyrrolidine-1-carbonyl)-3,3a,4,5,5a,5b,6,7,7a,8,9,10,11,11a,11b,12,13,13a-octadecahydro-2H-cyclopenta[a]chrysen-9-yl)oxy)carbonyl)-2,2-dimethylcyclobutane-1-carboxylic acid]	69	26	28	0.73	17.1	96	100	100	320	17000
CC(C)C1=C2[C@H]3CC[C@@H]4[C@@]5(C)CC[C@H](OC(=O)[C@H]6C[C@@H](C(=O)O)C6(C)C)C(C)(C)[C@@H]5CC[C@@]4(C)[C@]3(C)CC[C@@]2(C(=O)N(CCN(C)C)Cc2ccc(Cl)cc2)CC1=O [Example 14, (1R,3S)-3-((((3aR,5aR,5bR,7aR,9S,11aR,11bR,13aS)-3a-((4-chlorobenzyl)(2-(dimethylamino)ethyl)carbamoyl)-1-isopropyl-5a,5b,8,8,11a-pentamethyl-2-oxo-3,3a,4,5,5a,5b,6,7,7a,8,9,10,11,11a,11b,12,13,13a-octadecahydro-2H-cyclopenta[a]chrysen-9-yl)oxy)carbonyl)-2,2-dimethylcyclobutane-1-carboxylic acid]	91	12	12	1.72	9.83	100	100	100	166	9640
CC(C)C1=C2[C@H]3CC[C@@H]4[C@@]5(C)CC[C@H](OC(=O)[C@H]6C[C@@H](C(=O)O)C6(C)C)C(C)(C)[C@@H]5CC[C@@]4(C)[C@]3(C)CC[C@@]2(C(=O)N2CCC[C@H]2C(C)(C)O)CC1=O [Example 9, (1R,3S)-3-((((3aR,5aR,5bR,7aR,9S,11aR,11bR,13aS)-3a-((S)-2-(2-hydroxypropan-2-yl)pyrrolidine-1-carbonyl)-1-isopropyl-5a,5b,8,8,11a-pentamethyl-2-oxo-3,3a,4,5,5a,5b,6,7,7a,8,9,10,11,11a,11b,12,13,13a-octadecahydro-2H-cyclopenta[a]chrysen-9-yl)oxy)carbonyl)-2,2-dimethylcyclobutane-1-carboxylic acid]	40	9	8	7.44	342	100	100	100	107	10900
CC(C)C1=C2[C@H]3CC[C@@H]4[C@@]5(C)CC[C@H](OC(=O)[C@H]6C[C@@H](C(=O)O)C6(C)C)C(C)(C)[C@@H]5CC[C@@]4(C)[C@]3(C)CC[C@@]2(C(=O)N2CCCC2c2ncc(-c3ccccc3)[nH]2)CC1=O (stereo partly drawn) [Example 1, (1R,3S)-3-((((3aR,5aR,5bR,7aR,9S,11aR,11bR,13aS)-1-isopropyl-5a,5b,8,8,11a-pentamethyl-2-oxo-3a-((S)-2-(5-phenyl-1H-imidazol-2-yl)pyrrolidine-1-carbonyl)-3,3a,4,5,5a,5b,6,7,7a,8,9,10,11,11a,11b,12,13,13a-octadecahydro-2H-cyclopenta[a]chrysen-9-yl)oxy)carbonyl)-2,2-dimethlcyclobutane-1-carboxylic acid]	80	67	62	5.21	3.92	100	98	99	69.8	8650
CC(C)C1=C2[C@H]3CC[C@@H]4[C@@]5(C)CC[C@H](OC(=O)[C@H]6C[C@@H](C(=O)O)C6(C)C)C(C)(C)[C@@H]5CC[C@@]4(C)[C@]3(C)CC[C@@]2(C(=O)NC(C)(C)c2ncc(-c3ccc(Cl)cc3)[nH]2)CC1=O [Example 11, (1R,3S)-3-((((3aR,5aR,5bR,7aR,9S,11aR,11bR,13aS)-3a-((2-(5-(4-chlorophenyl)-1H-imidazol-2-yl)propan-2-yl)carbamoyl)-1-isopropyl-5a,5b,8,8,11a-pentamethyl-2-oxo-3,3a,4,5,5a,5b,6,7,7a,8,9,10,11,11a,11b,12,13,13a-octadecahydro-2H-cyclopenta[a]chrysen-9-yl)oxy)carbonyl)-2,2-dimethylcyclobutane-1-carboxylic acid]	48	3	4	2.93	118	92	99	99	143	10000
CC(C)C1=C2[C@H]3CC[C@@H]4[C@@]5(C)CC[C@H](OC(=O)[C@H]6C[C@@H](C(=O)O)C6(C)C)C(C)(C)[C@@H]5CC[C@@]4(C)[C@]3(C)CC[C@@]2(C(=O)N2CCC[C@H]2CN2CCC(F)CC2)CC1=O [Example 10, (1R,3S)-3-((((3aR,5aR,5bR,7aR,9S,11aR,11bR,13aS)-3a-((S)-2-((4-fluoropiperidin-1-yl)methyl)pyrrolidine-1-carbonyl)-1-isopropyl-5a,5b,8,8,11a-pentamethyl-2-oxo-3,3a,4,5,5a,5b,6,7,7a,8,9,10,11,11a,11b,12,13,13a-octadecahydro-2H-cyclopenta[a]chrysen-9-yl)oxy)carbonyl)-2,2-dimethylcyclobutane-1-carboxylic acid]	31	4	4	1.06	0.93	97	100	100	–	–
